Experimental data taken from article PMC4383725 (Cell reports, 2015).

Target: T1, oxysterol-binding protein (OSBP) (Homo sapiens, UniProt P22059)
T1 sequence (P22059 2-807): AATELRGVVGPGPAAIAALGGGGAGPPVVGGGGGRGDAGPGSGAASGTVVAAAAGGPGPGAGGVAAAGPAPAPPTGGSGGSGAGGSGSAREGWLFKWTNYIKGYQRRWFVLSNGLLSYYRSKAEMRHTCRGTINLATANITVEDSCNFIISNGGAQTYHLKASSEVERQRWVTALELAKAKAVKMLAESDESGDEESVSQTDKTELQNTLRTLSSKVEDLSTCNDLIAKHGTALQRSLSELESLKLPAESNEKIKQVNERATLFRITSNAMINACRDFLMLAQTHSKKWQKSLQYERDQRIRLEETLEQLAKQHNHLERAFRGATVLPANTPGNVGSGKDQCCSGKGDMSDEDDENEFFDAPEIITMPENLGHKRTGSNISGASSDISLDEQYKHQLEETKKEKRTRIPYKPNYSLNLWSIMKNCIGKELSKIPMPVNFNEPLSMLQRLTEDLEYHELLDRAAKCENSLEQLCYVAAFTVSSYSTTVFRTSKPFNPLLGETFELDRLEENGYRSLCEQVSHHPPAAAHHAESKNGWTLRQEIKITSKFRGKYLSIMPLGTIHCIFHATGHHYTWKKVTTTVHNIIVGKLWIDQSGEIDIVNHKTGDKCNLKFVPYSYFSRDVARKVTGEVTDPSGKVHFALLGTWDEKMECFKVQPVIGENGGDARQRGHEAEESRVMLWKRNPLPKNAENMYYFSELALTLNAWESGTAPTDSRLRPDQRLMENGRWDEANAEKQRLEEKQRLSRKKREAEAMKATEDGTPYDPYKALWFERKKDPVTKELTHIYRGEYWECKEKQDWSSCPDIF
Experiment: MicroScale Thermophoresis with purified GFP-OSBP

SMILES: CCC(C)n1ncn(-c2ccc(N3CCN(c4ccc(OCC5COC(Cn6cncn6)(c6ccc(Cl)cc6Cl)O5)cc4)CC3)cc2)c1=O (stereo not shown) [ITZ, itraconazole]
- Kd: ~430 nM
